Reference: PMC7048748, “Anxiolytic Drug FGIN-1-27 Ameliorates Autoimmunity by Metabolic Reprogramming of Pathogenic Th17 Cells” (Scientific Reports, 2020)

Tests used:
Format in all cases: cell-based, mouse
Th17 cells [1] = experiment: Th17 differentiation assay, intracellular IL-17 by flow cytometry
Description: Because of differential TSPO expression in Th17 cells (Fig. S1a) and up-regulation of TSPO in neuroinflammation, we tested whether TSPO ligands, such as FGIN-1-27, can affect Th17 differentiation. In this assay, purified CD4^+ T cells from mouse spleens and lymph nodes were cultured under Th17 polarizing conditions. […] FGIN-1-27 treatment had no effect on protein or transcript levels of RORγt, the Th17 lineage-determining transcription factor.
Figure 1 FGIN-1-27 Inhibits Th17 Differentiation. Naïve CD4 T cells from spleens and lymph nodes of C57BL/6 mice were differentiated under Th17 polarization conditions and were treated with DMSO (control) or FGIN-1-27. (a) Dose response plot showing effect of FGIN-1-27 on intracellular IL-17 and viability on day 4 post activation quantified by flow cytometry. Data is normalized against DMSO (100%). […] (b) Dot plots showing DMSO or FGIN-1-27 treated cells stained for surface CD4, CD44, intracellular IL-17 and intranuclear RORγt. (c) Transcript levels for the indicated genes after 24 hours of treatment with DMSO or FGIN-1-27 quantified by qPCR. Data was normalized to a housekeeping gene, β-actin. Data are representative of at least 3 independent experiments and the error bars indicate standard deviation.
Single cell suspensions were prepared from spleens and lymph nodes of mice by mechanical disruption. Red blood cells were lysed by ammonium chloride followed by CD4^+ T cell purification using either CD4 microbeads (Miltenyi Biotec) or sorting for naïve CD4^+ T cells (FACS Aria). 250,000 cells/well in a 48 well plate were polarized into Th17 cells using Th17 differentiation cocktail: IFNγ, IL-4, IL-12 neutralizing antibodies (10 μg/ml) and 10 ng/ml each of IL-6, IL-1b, IL-21 and TGF-β (0.5 ng/ml). Cells were treated with FGIN-1-27 (Tocris Bioscience) or DMSO at 18 hour and 48 hours post cell plating. On day 4 of culture, cells were re-stimulated with PMA-ionomycin in the presence of brefeldin A. Cells were subsequently stained with viability dye and surface stained for CD44, CD4 followed by permeabilization using cytofix/cytoperm (BD biosciences) and stained for intracellular IL-17. RORγt intranuclear staining was performed after fixation and permeabilization with a Foxp3/Transcription Factor Staining kit (eBioscience). Cells were acquired on BD Fortessa followed by analysis using Flowjo (Tree star Inc).

[2] = test system: Th17 cells from TSPO KO mice; experiment: Th17 differentiation with CD4 T cells from TSPO knockout mice; conditions: compared with T cells expressing TSPO
Description: We explored the mechanism of action for FGIN-1-27 and whether the effect of FGIN-1-27 on Th17 differentiation was driven by TSPO, the reported target of this compound. We used two approaches: first, we investigated the correlation between FGIN-1-27 induced IL-17 down-regulation and binding to TSPO. For the binding studies, we used a biochemical radio ligand displacement assay with the well-characterized TSPO ligand PK-11195 as a tracer. […] Secondly, we purified CD4^+ T cells from spleen and lymph nodes of mice that lacked global expression of TSPO (TSPO KO mice)[19]. We added FGIN-1-27 to the cultures of CD4^+ T cells from controls or TSPO KO mice that were induced towards the Th17 differentiation program.
Figure 3 Effect of FGIN-1-27 on Th17 Differentiation is Independent of TSPO. (a) Plot showing correlation between binding of FGIN-1-27 to TSPO and effect on IL-17 production. Binding of FGIN-1-27 to TSPO was measured using a biochemical radiolabeled displacement assay and radiolabeled PK-11195 was used as a control ligand. (b) Immunoblot to detect TSPO from spleens of either control or TSPO knockout mice (upper panel) and dose response plot for FGIN-1-27 showing effect on Th17 differentiation using purified CD4 T cells from spleens of either control or TSPO knockout mice. IL-17 production was normalized using DMSO treatment from control cells as 100%. […]

Th17 cells [3] = experiment: Whole-transcriptome RNA sequencing of treated CD4+ T cells
Description: Total RNA extractions for RNA-seq were performed using the mirVana kit (Applied Biosystems). RNA concentration was measured using the Qubit RNA broad range assay in the Qubit Flurometer (Invitrogen) and RNA integrity was determined with Eukaryote Total RNA Nano Series II ChIP on a 2100 Bioanalyzer (Agilent). RNA-seq libraries were prepared using TruSeq RNA sample preparation kit (Illumina). In brief, oligo-dT purified mRNA was fragmented and subjected to first and second strand cDNA synthesis. cDNA fragments were blunt ended, ligated to Illumina adaptors and PCR amplified to enrich for the fragments ligated to adaptors. The resulting cDNA libraries were verified and quantified on Agilent Bioanalyzer and single-end 96 cycle sequencing was conducted (Illumina).
Reads were aligned to the mm10 genome and the GRCm38 v87 transcriptome with STAR v2.5.2a using default parameters and output tracks normalized by RPM (–outWigNorm RPM). RSEM v1.3 was used to calculate gene counts and TPMs on the transcriptome-aligned reads as previously described[37]. Differential expression analysis was performed in R v3.5.2, using DESeq. 2 v1.22.2. […] Heatmaps were generated with the R package, heatmap. Integrative Genomics Viewer v2.4.19 was used for visualization of normalized bigwig tracks.

[4] = test system: reactive oxygen species (ROS); experiment: Intracellular ROS with DCFDA; conditions: 24-hour post treatment, 5 and 10 µM
Description: Figure 5 FGIN-1-27 induces amino acid starvation response (AAR). (a) MA-plot showing shrunken log2 fold-changes of detected genes between the DMSO and FGIN-1-27 RNA-seq samples, ranked by average normalized count. […] (b) Transcript levels for the indicated genes after 24 hours of treatment with DMSO or FGIN-1-27 quantified by qPCR. The error bars represent SD. (c) Western blot analysis for phosphorylated eIF2α and ATF4 24 hours after treatment with DMSO or FGIN-1-27 (5 and 10 μM). Data are representative of 3 independent experiments. (d) Amino acids in Th17 cells measured 72 hours after treatment with FGIN-1-27. The error bars represent SD. (e) ROS was measured using cell permeant reagent 2',7' -dichlorofluorescin diacetate (DCFDA) at 24 hours following treatment with FGIN-1-27. Filled grey histogram-DMSO, dotted line-FGIN-1-27 (10 μM) and dashed line indicates FGIN-1-27 (5 μM). (f) Dose response plot showing effect of FGIN-1-27 on intracellular IL-17 after pre-treatment with NAC (1 μM). Data are normalized using DMSO treated cells as 100% and the error bars represent SD. Increased amino acid synthesis and transport is characteristic of the amino acid starvation response (AAR)[20]. […] Induction of ATF4 can be an indication of oxidative stress and we measured reactive oxygen species (ROS) using the cell permeant reagent 2',7' -dichlorofluorescin diacetate (DCFDA).

Compound: CCCCCCN(CCCCCC)C(=O)Cc1c(-c2ccc(F)cc2)[nH]c2ccccc12 [FGIN-1-27, N, N-di-n-hexyl 2-(4-fluorophenyl) indole-3-acetamide]
- protein or transcript levels of RORγt (Th17 cells [1]): no effect
- proliferation (CFSE dilution) (Th17 cells [1]; 72 hours post treatment): proliferated to the same extent as DMSO treated cells
- IC50 (Th17 cells [1]; Mus musculus, 96 h, day 4 post activation, normalized against DMSO (100%)): 4.85 µM
- viability (Th17 cells [1]; Th17 polarizing conditions): without compromising viability
- IL-17 producing cells abolished (Th17 cells [1]; compared to DMSO treated cultures): 85%
- CD4 / CD44 dot plot, percent of cells (Th17 cells [1]; treated cells, Fig. 1b): 98%
- IL-17 / RORγt dot plot, percent of cells (Th17 cells [1]; treated cells, Fig. 1b): 8.0%
- Th17 differentiation in T cells from TSPO KO mice [2]: similarly to T cells expressing TSPO
- genes encoding glycolytic enzymes (hexokinase, phosphofructokinase, pyruvate kinase) (Th17 cells [3]; 24 hours): significantly down-regulated
- differentially expressed genes (Th17 cells [3]; vs DMSO, FDR < 0.05, 24 hours): 587
- intracellular ROS levels [4]: dose dependent increase
